Experimental data as given in ChEMBL document CHEMBL6109159, “Discovery of a Potent and Selective Protein Arginine Methyltransferase 5 (PRMT5) PROTAC Degrader” (J Med Chem, 2025).
Active and inactive are the calls of the source. The rule behind the calls is not given here.

Tests used:
MDA-MB-468 [1] = test: Cytotoxicity against human MDA-MB-468 cells assessed as cell viability measured after 7 days by CCK-8 assay; type: functional; details: MDA-MB-468, 168 h, time 7 day
MDA-MB-231 = test: Growth inhibition of human MDA-MB-231 cells assessed as cell viability measured after 5 days by CCK-8 assay; type: functional, cell-based; details: time 5.0 day
[2] = biological target: T1, von Hippel-Lindau disease tumor suppressor/Protein arginine N-methyltransferase 5 (Homo sapiens, UniProt O14744+P40337); test: PROTAC activity at PRMT5/VHL in VHL KO human MDA-MB-468 cells assessed as degradation at 5 uM of compound after 24 hrs by Western blot analysis; type: cell-based
T1 sequence (O14744 whole entry, looked up): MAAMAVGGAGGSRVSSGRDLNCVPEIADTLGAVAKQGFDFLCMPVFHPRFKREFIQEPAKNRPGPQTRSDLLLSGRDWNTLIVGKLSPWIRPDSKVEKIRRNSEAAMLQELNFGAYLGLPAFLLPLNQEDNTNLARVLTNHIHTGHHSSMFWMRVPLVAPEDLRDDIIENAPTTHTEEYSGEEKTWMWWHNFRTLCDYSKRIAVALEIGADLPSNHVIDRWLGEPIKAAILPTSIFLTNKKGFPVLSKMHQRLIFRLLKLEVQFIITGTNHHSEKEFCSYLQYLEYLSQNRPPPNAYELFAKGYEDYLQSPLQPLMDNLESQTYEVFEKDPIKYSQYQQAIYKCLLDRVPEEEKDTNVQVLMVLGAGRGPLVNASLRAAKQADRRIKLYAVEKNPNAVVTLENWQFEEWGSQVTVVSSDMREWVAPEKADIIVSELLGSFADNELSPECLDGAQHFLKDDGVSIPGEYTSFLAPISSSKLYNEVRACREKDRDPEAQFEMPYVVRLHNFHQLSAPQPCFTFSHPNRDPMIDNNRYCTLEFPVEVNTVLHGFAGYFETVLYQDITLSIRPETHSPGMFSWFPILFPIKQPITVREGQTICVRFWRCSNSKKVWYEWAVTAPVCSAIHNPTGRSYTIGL
T1 sequence (P40337 whole entry, looked up): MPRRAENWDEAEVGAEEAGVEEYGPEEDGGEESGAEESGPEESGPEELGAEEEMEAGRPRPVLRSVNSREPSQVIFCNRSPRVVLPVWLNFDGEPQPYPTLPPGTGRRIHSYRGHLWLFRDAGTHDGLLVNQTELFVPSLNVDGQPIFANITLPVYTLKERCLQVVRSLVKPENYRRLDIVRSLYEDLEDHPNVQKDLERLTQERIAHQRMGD

HCC70 = test: Growth inhibition of human HCC70 cells assessed as cell viability measured after 5 days by CCK-8 assay; type: functional, cell-based; details: time 5.0 day
[3] = biological target: T2, von Hippel-Lindau disease tumor suppressor/Methylosome protein WDR77 (Homo sapiens, UniProt Q9BQA1+P40337); test: PROTAC activity at MEP50/VHL in human MDA-MB-468 cells assessed as degradation measured after 72 hrs by Western blot analysis relative to control; type: cell-based
Target sequence in this assay (Q9BQA1 whole entry): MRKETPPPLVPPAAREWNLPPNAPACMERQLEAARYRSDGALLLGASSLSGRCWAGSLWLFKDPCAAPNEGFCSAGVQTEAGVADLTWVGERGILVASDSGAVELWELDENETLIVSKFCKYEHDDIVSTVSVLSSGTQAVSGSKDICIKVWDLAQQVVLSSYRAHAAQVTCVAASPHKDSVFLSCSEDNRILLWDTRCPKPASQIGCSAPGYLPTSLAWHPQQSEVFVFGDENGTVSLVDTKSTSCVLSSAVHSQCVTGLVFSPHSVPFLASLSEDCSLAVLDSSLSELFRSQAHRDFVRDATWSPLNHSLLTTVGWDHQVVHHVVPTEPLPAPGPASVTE
Target sequence in this assay (P40337 whole entry): as the sequence (P40337 whole entry, looked up) above

MDA-MB-468 [4] = test: Inhibition of colony formation in human MDA-MB-468 cells incubated for 16 days by crystal violet staining based analysis; type: functional, cell-based; details: time 16.0 day
[5] = biological target: T2, von Hippel-Lindau disease tumor suppressor/Methylosome protein WDR77; test: PROTAC activity at MEP50/VHL in VHL KO human MDA-MB-468 cells assessed as degradation at 5 uM of compound after 24 hrs by Western blot analysis; type: cell-based
Target sequence in this assay (P40337 whole entry, looked up): as above
Target sequence in this assay (Q9BQA1 whole entry, looked up): as the sequence (Q9BQA1 whole entry) above

[6] = biological target: T1, von Hippel-Lindau disease tumor suppressor/Protein arginine N-methyltransferase 5; test: PROTAC activity at PRMT5/VHL in human MCF7 cells assessed as degradation at 0.5 uM after 3 days by Western blot analysis; type: cell-based; details: time 3.0 day
[7] = biological target: T1, von Hippel-Lindau disease tumor suppressor/Protein arginine N-methyltransferase 5; test: PROTAC activity at PRMT5/VHL in human MDA-MB-231 cells assessed as degradation at 5 uM after 3 days by Western blot analysis; type: cell-based; details: time 3.0 day
PC-3 = test: Inhibition of sDMA (symmetric dimethylarginine) level in human PC-3 cells at 2 uM measured after 7 days by Western blot analysis; type: functional, cell-based; details: time 7.0 day
[8] = biological target: T1, von Hippel-Lindau disease tumor suppressor/Protein arginine N-methyltransferase 5; test: PROTAC activity at PRMT5/VHL in human PC-3 cells assessed as degradation at 0.004 to 2.5 uM after 7 hrs by Western blot analysis; type: cell-based; details: dose 0.004-2.5 µM
[9] = biological target: T2, von Hippel-Lindau disease tumor suppressor/Methylosome protein WDR77; test: PROTAC activity at MEP50/VHL in human MDA-MB-468 cells assessed as degradation at 2 uM by Western blot analysis; type: cell-based; details: time 3-48 hrs
Target sequence in this assay (P40337 whole entry, looked up): as the sequence (P40337 whole entry, looked up) above
Target sequence in this assay (Q9BQA1 whole entry, looked up): as the sequence (Q9BQA1 whole entry) above

[10] = biological target: T1, von Hippel-Lindau disease tumor suppressor/Protein arginine N-methyltransferase 5; test: PROTAC activity at PRMT5/VHL in human MCF-10A cells assessed as degradation at 0.5 to 5 uM after 3 days by Western blot analysis; type: cell-based; details: dose 0.5-5 µM, time 3.0 day
[11] = biological target: T1, von Hippel-Lindau disease tumor suppressor/Protein arginine N-methyltransferase 5; test: PROTAC activity at PRMT5/VHL in human MDA-MB-468 cells assessed as maximal degradation measured after 72 hrs by Western blot analysis relative to control; type: cell-based
[12] = biological target: T2, von Hippel-Lindau disease tumor suppressor/Methylosome protein WDR77; test: PROTAC activity at MEP50/VHL in VHL KO human MDA-MB-468 cells assessed as degradation at 0.5 uM of compound after 24 hrs by Western blot analysis; type: cell-based
Target sequence in this assay (P40337 whole entry, looked up): as the sequence (P40337 whole entry, looked up) above
Target sequence in this assay (Q9BQA1 whole entry, looked up): as the sequence (Q9BQA1 whole entry) above

[13] = biological target: T2, von Hippel-Lindau disease tumor suppressor/Methylosome protein WDR77; test: PROTAC activity at MEP50/VHL in human PC-3 cells assessed as degradation at 0.004 to 2.5 uM after 7 hrs by Western blot analysis; type: cell-based; details: dose 0.004-2.5 µM
Target sequence in this assay (P40337 whole entry, looked up): as the sequence (P40337 whole entry, looked up) above
Target sequence in this assay (Q9BQA1 whole entry, looked up): as the sequence (Q9BQA1 whole entry) above

[14] = biological target: T1, von Hippel-Lindau disease tumor suppressor/Protein arginine N-methyltransferase 5; test: PROTAC activity at PRMT5/VHL in human MDA-MB-453 cells assessed as degradation at 5 uM after 3 days by Western blot analysis; type: cell-based; details: time 3.0 day

Which results are given for `Cc1ncsc1-c1ccc([C@H](CC(=O)NCCOCCOCCOCCOCCOCCC(=O)N2CCC(Nc3cc(C(=O)NC[C@H](O)CN4CCc5ccccc5C4)ncn3)CC2)NC(=O)[C@@H]2C[C@@H](O)CN2C(=O)[C@@H](NC(=O)C2(F)CC2)C(C)(C)C)cc1`?
GI50 (MDA-MB-468 [1]): 5.6 µM; growth inhibition (GI) (MDA-MB-231): Active; Activity [2]: Not active; Complete Rescue Not Observed - Due To Incomplete Vhl Ko; growth inhibition (GI) (HCC70): Active; DC50 [3]: 11.3 nM; Activity (MDA-MB-468 [4]): Active; Activity [5]: Not active; Complete Rescue Not Observed - Due To Incomplete Vhl Ko; Activity [6]: Active; Activity [7]: Active; inhibition (PC-3): Active; Activity [8]: Active; Activity [9]: Time-dependent-effect; Activity [10]: 100%; Emax [11]: 86%; Activity [12]: Not active; Complete Rescue Not Observed - Due To Incomplete Vhl Ko; Activity [13]: Active; Activity [14]: Active
